# Test results: patent publication US12297184B2 (Tesaro, Inc., priority 2018, dated 2025)
# Legend:
# [1] = Hygroscopicity by gravimetric (GVS) or dynamic (DVS) vapour sorption; type: physicochemical; conditions: for % Mass increase: at 90% RH, 25° C., GVS (camphorates, camsylate), DVS (mandelate); for Hygroscopicity (in words): from % mass increase at 90% RH
# Description: Typically, approximately 10-20 mg of sample was placed into a mesh vapour sorption balance pan and loaded into an IGASorp Moisture Sorption Analyser balance by Hiden Analytical. The sample was subjected to a ramping profile from 40-90% relative humidity (RH) at 10% increments, maintaining the sample at each step until a stable weight had been achieved (98% step completion, minimum step length 30 minutes, maximum step length 60 minutes) at 25° C. After completion of the sorption cycle, the sample was dried using the same procedure to 0% RH, and finally taken back to the starting point of 40% RH. Two cycles were performed. The weight change during the sorption/desorption cycles were plotted, allowing for the hygroscopic nature of the sample to be determined.
# Typically, approximately 10 mg of sample was placed into a mesh vapor sorption balance pan and loaded into a DVS-1/DVS Intrinsic/DVS Advantage dynamic vapor sorption balance by Surface Measurement Systems. The sample was subjected to a ramping profile from 40-90% relative humidity (RH) at 10% increments, maintaining the sample at each step until a stable weight had been achieved (dm/dt 0.004%, minimum step length 30 min, maximum step length 500 min) at 25° C. After completion of the sorption cycle, the sample was dried using the same procedure to 0% RH and then a second sorption cycle back to 40% RH. Two cycles were performed. The weight change during the sorption/desorption cycles were plotted, allowing for the hygroscopic nature of the sample to be determined.
# GVS was performed on the crystalline solids produced in Examples land 3. DVS was performed on the crystalline solids produced in Example 2. Table 6 below summarizes the % mass increase observed at 90% RH for the samples.
# [2] = for Solubility Water / Solubility pH 1 / Solubility pH 4.5 / Solubility pH 6.8: 24 h
# Description: (§1) In an initial procedure (performed in triplicate), the salts were added in small aliquots to deionised water or to buffer solutions (10 mL) until saturation was achieved (˜20 mg was initially added), and the resulting slurry was shaken at 37° C. for 24 h. The following buffers (50 mM in each case) were used: • pH 1 25 mL KCl solution (1.49 g dissolved in 100 mL water) and 42.5 mL HCl solution (1.66 mL of concentrated HCl (˜37%) made up to 100 mL with water) were added together and made up to 100 mL with water; • pH 4.5 anhydrous sodium acetate (1.07 g) was dissolved in water (about 150 mL) before adding 5.9 mL acetic acid solution (11.6 mL glacial acetic acid made up to 100 mL with water). The resulting solution was made up to 500 mL with water; and • pH 6.8 25 mL of KH2PO4 solution (2.72 g dissolved in about 80 mL water and made up to 100 mL with water) and 11.2 mL of NaOH solution (800 mg of sodium hydroxide was dissolved and diluted to 100 mL with water) were added together and made up to 100 mL with water.
# (§2) Any solids which were isolated by filtration were assessed by XRPD to determine whether the form of the material had changed.
# (§3) The solubility assessment of these samples was repeated using the following procedure (samples prepared in triplicate):
# (§4) The appropriate salt (30 mg) was weighed into a vial and water or buffer solution (1 mL) was added. The samples were shaken at 37° C. for 24 h. After 1 h and after about 17 h, further salt was added to the mandelate samples (except those in pH 1 buffer solution) to give an approximate 50-60 mg of solids. […] The samples were analysed as described above.
# PARP activity = conditions: read-out: inhibition of PARP activity EC50; whole cell assay; cited from earlier work
# [3] = system: cancer cells having mutant BRCA1 and BRCA2; conditions: read-out: inhibition of proliferation CC50; cited from earlier work
# [4] = drug substance; cited from earlier work
# physchem = conditions: 37 °C, thermodynamic from solid
# Description: as §1, §2, §3, §4
Compound,% Mass increase [1] [%],Solubility Water [2] [µg/mL],Solubility pH 1 [2] [mg/mL],Solubility pH 4.5 [2] [mg/mL],Solubility pH 6.8 [2] [mg/mL],Hygroscopicity (in words) [1],further results
"NC(=O)c1cccc2cn(-c3ccc(C4CCCNC4)cc3)nc12 [(−)-Camphorate, 2-{4-[(3S)-piperidin-3-yl]phenyl}-2H-indazole-7-carboxamide (niraparib) (1S,3R)-(−)-camphorate]",~0.2,,,,,,
camphorate,,,,,,not hygroscopic,"Solubility (in words, reading of Table 8) ([2]; comparison with tosylate salt, especially in low pH media): greater solubility than the tosylate salt"
"NC(=O)c1cccc2cn(-c3ccc([C@@H]4CCCNC4)cc3)nc12 [Niraparib, 2-{4-[(3S)-piperidin-3-yl]phenyl}-2H-indazole-7-carboxamide]",,,,,,,EC50 (PARP activity): 4 nM; CC50 [3]: 10 to 100 nM
"NC(=O)c1cccc2cn(-c3ccc([C@@H]4CCCNC4)cc3)nc12 [Tosylate, 2-{4-[(3S)-piperidin-3-yl]phenyl}-2H-indazole-7-carboxamide 4-methylbenzenesulfonate hydrate 1:1:1]",,,,,,,"Aqueous solubility (background statement) [4]: low aqueous solubility; Hygroscopicity (background statement) [4]: non-hygroscopic; solubility at 24 h (physchem; pH 1, simulated gastric fluid, Solubility pH 1): 900 µg/mL; solubility at 24 h (physchem; pH 6.8, aqueous buffer, Solubility pH 6.8): 900 µg/mL; solubility at 24 h (physchem; water, Solubility Water): 500 µg/mL"

# Further lines, with some results ahead:
% Mass increase [1] [%],Solubility Water [2] [µg/mL],Solubility pH 1 [2] [mg/mL],Solubility pH 4.5 [2] [mg/mL],Solubility pH 6.8 [2] [mg/mL],Hygroscopicity (in words) [1],Compound,further results
~1.3,5900,11.5,7.1,1.7,slightly hygroscopic,"NC(=O)c1cccc2cn(-c3ccc(C4CCCNC4)cc3)nc12 [Camsylate, 2-{4-[(3S)-piperidin-3-yl]phenyl}-2H-indazole-7-carboxamide (niraparib) (1S)-(+)-camsylate]",
~0.07,45400,163.1,53.8,7.8,not hygroscopic,"NC(=O)c1cccc2cn(-c3ccc(C4CCCNC4)cc3)nc12 [Mandelate, 2-{4-[(3S)-piperidin-3-yl]phenyl}-2H-indazole-7-carboxamide (niraparib) (R)-(−)-mandelate]",
~0.3,200,21.4,0.3,1.2,,"NC(=O)c1cccc2cn(-c3ccc(C4CCCNC4)cc3)nc12 [(+)-Camphorate, 2-{4-[(3S)-piperidin-3-yl]phenyl}-2H-indazole-7-carboxamide (niraparib) (1R,3S)-(+)-camphorate]",
